Values of other authors as cited in patent US20040006103A1, “Use of chloroquine, hydroxychloroquine and 4 amino-quinolinic derivatives to obtain a drug for the anti retroviral therapy, active towards HIV sensitive strains and towards HIV strains which are resistant to both nucleosidic and non-nucleosidic reverse transcriptase inhibitors and to proteases …” (VALPHARMA S.A., priority 2002, published 2004).

Legend:
HIV-1 [1] = conditions: association hydroxychloroquine (400 mg/day) plus HU plus ddI, 48 weeks, Paton et al. 2002, cited from earlier work
HIV-1 [2] = conditions: Sperber (1993), cited from earlier work
[3] = plasmatic concentrations 7 to 15 microM, prolonged over 18-24 months; Lange (1994); cited from earlier work
HIV [4] = conditions: in vitro, cited from earlier work
HIV-1 [5] = conditions: 800 mg/day, 8 weeks, Sperber et al. (1995), cited from earlier work
HIV [6] = conditions: cited from earlier work
HIV [7] = conditions: 800 mg/day, compared to placebo; Sperber et al. 1997; cited from earlier work
HIV [8] = conditions: continuous cultures of cells from the lymphocyte system; Tsai (1990); cited from earlier work

| Compound | decrement of plasmatic HIV-RNA (HIV-1 [1]; 22 patients) [logs] | tolerability (HIV-1 [1]) | production of infecting viral particles (HIV-1 [2]; CEM cells used as target) | inhibition of HIV-1 replication (HIV-1 [2]; PBMC, U-937, CEM) [%] | toxic effect in cell cultures (HIV-1 [2]; concentration suitable for inhibit viral replication) | retinopathy [3] | effect on inhibition of the HIV replication when added to ddI plus HU (HIV [4]; Boelaert et al. (1999)) | effect when added to the association AZT plus HU (HIV [4]; Boelaert et al. (2001)) | quantity of HIV-RNA (HIV-1 [5]; asymptomatic HIV-1 positive patients) | negative events (HIV-1 [5]) | negative events (HIV [6]; 16 weeks, hydroxychloroquine 800 mg/day, AZT 500 mg/day) | patients with an increase of plasmatic viremia (HIV [6]; at the 8th and at the 16th week) | plasmatic HIV-RNA (HIV [7]) | inhibition of the HIV replicative cycle (HIV [8]) |
| --- | --- | --- | --- | --- | --- | --- | --- | --- | --- | --- | --- | --- | --- | --- |
| CCN(CCO)CCCC(C)Nc1ccnc2cc(Cl)ccc12 (centres unmarked) [HCQ, hydroxychloroquine] | 1.3 | well tolerated | almost completely inhibits | > 75 | no toxic effect was found | rarely induced retinopathy | extra effect | additional effect | significantly decreased | No negative event was observed | no negative events were observed | nobody | significant reduction | – |
| CCN(CC)CCCC(C)Nc1ccnc2cc(Cl)ccc12 (centres unmarked) [CQ, chloroquine] | – | – | – | – | – | – | – | – | – | – | – | – | – | inhibits the HIV replicative cycle |
